Data taken from patent US7632811B2, “Analogs of parathyroid hormone” (Societe de Conseils de Recherches et D'Applications …, priority 1995, dated 2009).
Non-standard residues stand in square brackets, D forms with d. Residues, ends and D or L forms follow the SMILES beside them. Cha = N[C@@H](CC1CCCCC1)C(=O)O; Nle = CCCC[C@H](N)C(=O)O; Aib = CC(C)(N)C(=O)O

Biological target: T1, PTH receptor present on SaOS-2 (human osteosarcoma cells) (Homo sapiens, UniProt Q03431)
T1 construct: host or cells: SaOS-2 human osteosarcoma cells (intact, confluent monolayers)
T1 sequence (Q03431 27-593): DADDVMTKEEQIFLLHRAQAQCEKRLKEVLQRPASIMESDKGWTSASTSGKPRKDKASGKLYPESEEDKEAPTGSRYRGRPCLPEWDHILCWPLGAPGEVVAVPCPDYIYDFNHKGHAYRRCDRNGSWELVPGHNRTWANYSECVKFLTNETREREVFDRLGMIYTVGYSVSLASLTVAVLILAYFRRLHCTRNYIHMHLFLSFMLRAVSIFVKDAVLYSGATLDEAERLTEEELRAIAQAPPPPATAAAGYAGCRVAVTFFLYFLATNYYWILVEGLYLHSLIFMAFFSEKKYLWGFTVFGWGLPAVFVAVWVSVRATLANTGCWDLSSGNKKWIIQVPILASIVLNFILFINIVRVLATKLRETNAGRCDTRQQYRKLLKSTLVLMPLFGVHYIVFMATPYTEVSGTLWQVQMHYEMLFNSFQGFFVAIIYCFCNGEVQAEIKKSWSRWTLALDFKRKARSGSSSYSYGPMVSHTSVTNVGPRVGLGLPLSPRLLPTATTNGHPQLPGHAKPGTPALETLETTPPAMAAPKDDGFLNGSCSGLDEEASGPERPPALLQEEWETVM
Assay: Binding to PTH receptor on SaOS-2 cells (competition with mono-125I-[Nle8,18,Tyr34(3-125I)]bPTH(1-34)NH2)
Details: Table I, 2 hrs at room temperature, read-out: Kd (half maximal inhibition of binding of mono-125I-[Nle8,18, Tyr34(3-125I)]bPTH(1-34)NH2)
Description: A. Binding to PTH Receptor
The peptides of the invention were tested for their ability to bind to the PTH receptor present on SaOS-2 (human osteosarcoma cells). SaOS-2 cells (American Type Culture Collection, Rockville, Md.; ATCC #HTB 85) were maintained in RPMI 1640 medium (Sigma, St. Louis, Mo.) supplemented with 10% fetal bovine serum (FBS) and 2 mM glutamine at 37EC in a humidified atmosphere of 5% CO2 in air. The medium was changed every three or four days, and the cells were subcultured every week by trypsinization.
SaOS-2 cells were maintained for four days until they had reached confluence. The medium was replaced with 5% FBS in RPMI 1640 medium and incubated for 2 hrs at room temperature with 10×10^4 cpm mono-^125I-[Nle^8,18, Tyr^34(3-^125I)]bPTH(1-34)NH2 in the presence of a competing peptides of the invention at various concentrations between 10^−11 M to 10^−4 M. The cells were washed four times with ice-cold PBS and lysed with 0.1 M NaOH, and the radioactivity associated with the cells was counted in a scintillation counter. Synthesis of mono-^125I-[Nle^8,18, Tyr^34(3-^125I)]bPTH(1-34)NH2 was carried out as described in Goldman, M. E., et al., Endocrinol., 123:1468 (1988).
The binding assay was conducted with various peptides of the invention, and the Kd value (half maximal inhibition of binding of mono-^125I-[Nle^8,18, Tyr^34(3-^125I)]bPTH(1-34)NH2) for each peptide was calculated.

| SMILES | Kd [nM] |
| --- | --- |
| CC[C@H](C)[C@H](NC(=O)[C@H](CCC(=O)O)NC(=O)[C@H](CO)NC(=O)[C@@H](NC(=O)[C@@H](N)CO)C(C)C)C(=O)N[C@@H](CCC(N)=O)C(=O)N[C@@H](CC1CCCCC1)C(=O)N[C@@H](CCSC)C(=O)N[C@@H](Cc1c[nH]cn1)C(=O)N[C@@H](CC(N)=O)C(=O)N[C@@H](CC1CCCCC1)C(=O)NCC(=O)N[C@@H](CCCCN)C(=O)N[C@@H](Cc1c[nH]cn1)C(=O)N[C@@H](CC(C)C)C(=O)N[C@@H](CC(N)=O)C(=O)N[C@@H](CO)C(=O)N[C@@H](CCSC)C(=O)NC(C)(C)C(=O)N[C@@H](CCCNC(=N)N)C(=O)N[C@H](C(=O)N[C@@H](CCC(=O)O)C(=O)N[C@@H](Cc1c[nH]c2ccccc12)C(=O)N[C@@H](CC(C)C)C(=O)N[C@@H](CCCNC(=N)N)C(=O)N[C@@H](CCCCN)C(=O)N[C@@H](CCCCN)C(=O)N[C@@H](CC(C)C)C(=O)N[C@@H](CCC(N)=O)C(=O)N[C@@H](CCCCN)C(=O)N[C@H](C(=O)N[C@@H](Cc1c[nH]cn1)C(=O)N[C@@H](CC(N)=O)C(=O)N[C@@H](Cc1ccccc1)C(N)=O)C(C)C)C(C)C [[Cha^7,11, Aib^19, Lys^30]hPTH(1-34)NH2] (H-SVSEIQ[Cha]MHN[Cha]GKHLNSM[Aib]RVEWLRKKLQKVHNF-NH2) | 4 |
| CC[C@H](C)[C@H](NC(=O)[C@H](CCC(=O)O)NC(=O)[C@H](CO)NC(=O)[C@@H](NC(=O)[C@@H](N)CO)C(C)C)C(=O)N[C@@H](CCC(N)=O)C(=O)N[C@@H](CC1CCCCC1)C(=O)N[C@@H](CCSC)C(=O)N[C@@H](Cc1c[nH]cn1)C(=O)N[C@@H](CC(N)=O)C(=O)N[C@@H](CC1CCCCC1)C(=O)NCC(=O)N[C@@H](CCCCN)C(=O)N[C@@H](Cc1c[nH]cn1)C(=O)N[C@@H](CC(C)C)C(=O)N[C@@H](CC(N)=O)C(=O)N[C@@H](CO)C(=O)N[C@@H](CCSC)C(=O)NC(C)(C)C(=O)N[C@@H](CCCNC(=N)N)C(=O)N[C@H](C(=O)N[C@@H](CCC(=O)O)C(=O)N[C@@H](Cc1c[nH]c2ccccc12)C(=O)N[C@@H](CC(C)C)C(=O)N[C@@H](CCCNC(=N)N)C(=O)N[C@@H](CCCCN)C(=O)N[C@@H](CCCCN)C(=O)N[C@@H](CC(C)C)C(=O)N[C@@H](CCC(N)=O)C(=O)N[C@@H](CC(=O)O)C(=O)N[C@H](C(=O)N[C@@H](Cc1c[nH]cn1)C(=O)N[C@@H](CC(N)=O)C(=O)N[C@@H](Cc1ccccc1)C(N)=O)C(C)C)C(C)C [[Cha^7,11, Aib^19]hPTH(1-34)NH2] (H-SVSEIQ[Cha]MHN[Cha]GKHLNSM[Aib]RVEWLRKKLQDVHNF-NH2) | 7 |
| CCCC[C@H](NC(=O)[C@H](CC(=O)O)NC(=O)[C@H](CCC(N)=O)NC(=O)[C@H](CC(C)C)NC(=O)[C@H](CCCCN)NC(=O)[C@H](CCCCN)NC(=O)[C@H](CCCNC(=N)N)NC(=O)[C@H](CC(C)C)NC(=O)[C@H](Cc1c[nH]c2ccccc12)NC(=O)[C@H](CCC(=O)O)NC(=O)[C@@H](NC(=O)[C@H](CCCNC(=N)N)NC(=O)C(C)(C)NC(=O)[C@H](CCCC)NC(=O)[C@H](CO)NC(=O)C(C)(C)NC(=O)[C@H](CC(C)C)NC(=O)[C@H](Cc1c[nH]cn1)NC(=O)[C@H](CCCCN)NC(=O)CNC(=O)[C@H](CC1CCCCC1)NC(=O)[C@H](CC(N)=O)NC(=O)[C@H](Cc1c[nH]cn1)NC(=O)[C@H](CCCC)NC(=O)[C@H](CC1CCCCC1)NC(=O)[C@H](CCC(N)=O)NC(=O)[C@@H](NC(=O)[C@H](CCC(=O)O)NC(=O)[C@H](CO)NC(=O)[C@@H](NC(=O)[C@@H](N)CO)C(C)C)[C@@H](C)CC)C(C)C)C(=O)N[C@@H](Cc1c[nH]cn1)C(=O)N[C@@H](CC(N)=O)C(=O)N[C@@H](Cc1ccc(O)cc1)C(N)=O [[Cha^7,11, Nle^8,18,31, Aib^16,19, Tyr^34]hPTH(1-34)NH2] (H-SVSEIQ[Cha][Nle]HN[Cha]GKHL[Aib]S[Nle][Aib]RVEWLRKKLQD[Nle]HNY-NH2) | 40 |
| CCCC[C@H](NC(=O)[C@H](CC1CCCCC1)NC(=O)[C@H](CCC(N)=O)NC(=O)[C@@H](NC(=O)[C@H](CCC(=O)O)NC(=O)[C@H](CO)NC(=O)[C@@H](NC(=O)[C@@H](N)CO)C(C)C)[C@@H](C)CC)C(=O)N[C@@H](Cc1c[nH]cn1)C(=O)N[C@@H](CC(N)=O)C(=O)N[C@@H](CC1CCCCC1)C(=O)NCC(=O)N[C@@H](CCCCN)C(=O)N[C@@H](Cc1c[nH]cn1)C(=O)N[C@@H](CC(C)C)C(=O)NC(C)(C)C(=O)N[C@@H](CO)C(=O)N[C@@H](CCCC)C(=O)NC(C)(C)C(=O)N[C@@H](CCCNC(=N)N)C(=O)N[C@H](C(=O)N[C@@H](CCC(=O)O)C(=O)N[C@@H](Cc1c[nH]c2ccccc12)C(=O)N[C@@H](CC(C)C)C(=O)N[C@@H](CCCNC(=N)N)C(=O)N[C@@H](CCCCN)C(=O)N[C@@H](CCCCN)C(=O)N[C@@H](CC(C)C)C(=O)N[C@@H](CCC(N)=O)C(=O)N[C@@H](CC(=O)O)C(=O)N[C@H](C(=O)N[C@@H](Cc1c[nH]cn1)C(=O)N[C@@H](CC(N)=O)C(=O)N[C@@H](Cc1ccc(O)cc1)C(N)=O)C(C)C)C(C)C [[Cha^7,11, Nle^8,18, Aib^16,19, Tyr^34]hPTH (1-34)NH2] (H-SVSEIQ[Cha][Nle]HN[Cha]GKHL[Aib]S[Nle][Aib]RVEWLRKKLQDVHNY-NH2) | 5 |
| CCCC[C@H](NC(=O)[C@H](CO)NC(=O)[C@H](CC(N)=O)NC(=O)[C@H](CC(C)C)NC(=O)[C@H](Cc1c[nH]cn1)NC(=O)[C@H](CCCCN)NC(=O)CNC(=O)[C@H](CC1CCCCC1)NC(=O)[C@H](CC(N)=O)NC(=O)[C@H](Cc1c[nH]cn1)NC(=O)[C@H](CCCC)NC(=O)[C@H](CC1CCCCC1)NC(=O)[C@H](CCC(N)=O)NC(=O)[C@@H](NC(=O)[C@H](CCC(=O)O)NC(=O)[C@H](CO)NC(=O)[C@@H](NC(=O)[C@@H](N)CO)C(C)C)[C@@H](C)CC)C(=O)N[C@@H](CCC(=O)O)C(=O)N[C@@H](CCCNC(=N)N)C(=O)N[C@H](C(=O)N[C@@H](CCC(=O)O)C(=O)N[C@@H](Cc1c[nH]c2ccccc12)C(=O)N[C@@H](CC(C)C)C(=O)N[C@@H](CCCNC(=N)N)C(=O)N[C@@H](CCCCN)C(=O)N[C@@H](CCCCN)C(=O)N[C@@H](CC(C)C)C(=O)N[C@@H](CCC(N)=O)C(=O)N[C@@H](CC(=O)O)C(=O)N[C@H](C(=O)N[C@@H](Cc1c[nH]cn1)C(=O)N[C@@H](CC(N)=O)C(=O)NC(C)(C)C(N)=O)C(C)C)C(C)C [[Cha^7,11, Nle^8,18, Aib^34]hPTH(1-34)NH2] (H-SVSEIQ[Cha][Nle]HN[Cha]GKHLNS[Nle]ERVEWLRKKLQDVHN[Aib]-NH2) | 30 |
| CCCC[C@H](NC(=O)[C@H](CO)NC(=O)[C@H](CC(N)=O)NC(=O)[C@H](CC(C)C)NC(=O)[C@H](Cc1c[nH]cn1)NC(=O)[C@H](CCCCN)NC(=O)CNC(=O)[C@H](CC1CCCCC1)NC(=O)[C@H](CC(N)=O)NC(=O)[C@H](Cc1c[nH]cn1)NC(=O)[C@H](CCCC)NC(=O)[C@H](CC1CCCCC1)NC(=O)[C@H](CCC(N)=O)NC(=O)[C@@H](NC(=O)[C@H](CCC(=O)O)NC(=O)[C@H](CO)NC(=O)[C@@H](NC(=O)[C@@H](N)CO)C(C)C)[C@@H](C)CC)C(=O)N[C@@H](CCC(=O)O)C(=O)N[C@@H](CCCNC(=N)N)C(=O)N[C@H](C(=O)N[C@@H](CCC(=O)O)C(=O)N[C@@H](Cc1c[nH]c2ccccc12)C(=O)N[C@@H](CC(C)C)C(=O)N[C@@H](CCCNC(=N)N)C(=O)N[C@@H](CCCCN)C(=O)N[C@@H](CCCCN)C(=O)N[C@@H](CC(C)C)C(=O)N[C@@H](CCC(N)=O)C(=O)N[C@@H](CC(=O)O)C(=O)N[C@H](C(=O)N[C@@H](Cc1c[nH]cn1)C(=O)N[C@@H](CC(N)=O)C(=O)N[C@@H](Cc1ccc(O)cc1)C(N)=O)C(C)C)C(C)C [[Cha^7,11, Nle^8,18, Tyr^34]hPTH(1-34)NH2] (H-SVSEIQ[Cha][Nle]HN[Cha]GKHLNS[Nle]ERVEWLRKKLQDVHNY-NH2) | 6 |
